Experiments:
[1] = deposition in drilled holes; NaF 0.25%, theobromine 200 mg/L
Protocol: (§1) Isolated human teeth were scratched with a diamond scribe on the enamel surface. Each tooth was then etched for 15 seconds in 0.1 M HCl, rinsed with distilled water, then exposed for 15 seconds to a 0.1 M oxalic acid solution, and then rinsed once more with distilled water. […] The pH was adjusted to 7.4-7.6, after which a 0.2 M CaCl2 solution was added with stirring (the solution turns immediately turbid from Ca-phosphate precipitation). The pH was checked and adjusted immediately to between 7.4 and 7.6, as required. […] A volume ratio of about 3:5 Na2HPO4 solution-to-CaCl2 solution was used to avoid any excess of either Ca or P. The teeth were so incubated at room temperature for about 90 minutes, after which they were removed from solution, carefully rinsed several times with distilled water, and then dried in a desiccator for 24 hours. After drying, the teeth were carbon-coated for viewing via scanning electron microscopy (SEM).
Using a dental drill, holes were drilled into the enamel surfaces of isolated human teeth, with each tooth receiving three holes in three separate locations. […] The teeth were visualized via SEM, as in EXAMPLE 4, and the amount of calcium phosphate deposition measured for each experimental condition.

[2] = Scratched human teeth, SEM comparison of theobromine and NaF; conditions: 90 minutes incubation; NaF 0.25%, theobromine 200 mg/L
Protocol: as §1

## [F-].[Na+] [NaF, sodium fluoride]
[1]
  Calcium Phosphate (μm) ± S.D.: 70 ± 8.8 μm
[2]
  appearance of diamond-scribe scratch in SEM: partly-filled
